Drawing on patent publication US20230107216A1, “PANTETHEINE DERIVATIVES AND USES THEREOF” (Comet Therapeutics, Inc., priority 2018, published 2023), this text covers activation and inhibition for 14 compounds.

Read-outs that look alike come from different tables or passages of the source.

Test [1] deals with HepG2 cells. Briefly: Mitochondrial membrane potential (MITO-ID MP detection Kit). The conditions noted are these: Homo sapiens, 168 h, 7 days; for activation at 10 µM: read-out: % increase in Mitochondrial Membrane Potential; for inhibition at 50 µM: read-out: % decrease in Mitochondrial Membrane Potential. The test is classed as cell-based. The method in brief: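 Cells plated at 160000 cells/mL in DMEM with 10% FBS and 1% Pen-Strep, adhered overnight at 37° C., 5% CO2. Exposure to test compounds (50-10 μM) or 0.2% DMSO for 7 days without media change; membrane potential measured with MITO-ID MP detection kit per manufacturer.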

In test [2] the test system is Very long-chain acyl-CoA dehydrogenase (VLCAD) primary fibroblasts GM17475. Briefly: Total NAD+ + NADH and NAD+ (NAD/NADH-Glo), VLCAD fibroblasts GM17475. The test is classed as cell-based. The conditions noted are these: Homo sapiens, Fibroblast, VLCAD GM17475 P10, assay condition A, 24h, read-out: Increase in Total NAD+ + NADH. As to the method:
Primary adherent fibroblasts were cultured in minimum essential medium (MEM) (Gibco, 25030081) supplemented with 2 mM L-Glutamine (Gibco, 25030081), 15% fetal bovine serum (FBS) (Gibco, 26400044) and 1% penicillin/streptomycin (Gibco, 5140122) at 37° C. and 5% CO2. Cells were collected for either passaging or experiment at ˜70-80% confluence. Cells were obtained by trypsinization and seeded in cell culture microplates either white plate (Thermo Fisher Scientific, 152028) for luminescent measurement or black plate (Thermo Fisher Scientific, 165305) for fluorescent based read out for different assays listed below. Cells were obtained by trypsinization and […] were seeded and allowed to adhere for 16-18 hours to have confluency around 70-80% in the cell well with culture media. After 24 hours prior to measurements (37° C., 5% CO2) media was changed to Dulbecco's Modified Eagle Medium (DMEM, Agilent Seahorse cat #103575-100) with the appropriate supplements as stated below.
Primary fibroblasts assayed were Propionic Acidemia (PA) (GM03590 Coriell Institute for Medical Research, Tsi 6337 Trans-Hit Bio), Methylmalonic Acidemia (MMA) (Tsi 5224 Trans-Hit Bio), Subnormal activation of pyruvate dehydrogenase complex (PDH) (GM01503 Coriell Institute for Medical Research), Very long-chain acyl-CoA dehydrogenase (VLCAD) (GM17475), Leigh Syndrome (LS) (GM03672, GM13411 Coriell Institute for Medical Research), Pyruvate Carboxylase Deficiency (PC) (GM00444 Coriell Institute for Medical Research). 10 μM of Compounds were added for 2 hours in PA, MMA lines and for 24h for the other fibroblast lines.
Assay was performed according to manufacturer instructions (NAD/NADH-Glo Assay Promega, G9072). The NAD/NADH-Glo Assay is a bioluminescent assay for detecting total oxidized and reduced nicotinamide adenine dinucleotides (NAD+ and NADH, respectively) from which ratio of NAD/NADH can be calculated. Briefly, for every assay a 12-point standard curve was prepared ranging from 400 nM to 0.625 nM. Media was removed and replaced with 50 μl of PBS for both assays.
For individual NAD+ and NADH measurement, 50 μl of 1% DTAB (Sigma Cat #D5047) (cell lysis reagent) in 0.2N NaOH was added to the plate and a total 100 μl of lysate was split into two plates with 50 μl each. 25 μl of 0.4N HCl were added to the NAD+ plate and both NAD+ and NADH plate were heated at 60° C. for 15 minutes. The acid and heat treatment destroyed NADH allowing individual NAD+ measurement while heating in basic conditions destroys NAD+ allowed individual NADH measurements. The plates were allowed to come to room temperature for 10 minutes and Trizma base (Sigma, T1699) was added to the NAD+ plate to neutralize the acid and HCl Trizma hydrochloride (Sigma, T2694) was added to the NADH plate. The NADNADH glo reagent was prepared by adding: 625 μl of NAD cycling substrate, 125 μl of reductase, 125 μl of reductase substrate, 125 μl NAD cycling enzyme to total of the 25 ml of NAD GLO reagent. 1:1 ratio of total volume of reagent was added to the individual NAD+, NADH measurement (total 100 μl) and 50 μl for total NAD/NAH measurement. Luminescence was read between 30-60 minutes within the linear range.
A total dead cell count was performed as described in Example 817 and only alive cells were used for analysis.

Test [3] concerns primary fibroblasts (healthy controls and PA, MMA, BCKDK, PDH, VLCAD, LS, PC, GA, VLCFA, KSS, FXN, HD). In words: Measurement of ROS (H2DCFDA) in primary fibroblasts. The test is classed as cell-based, human. Particulars: Homo sapiens, procedure Example 812. The gist of the method:
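Patient and healthy-control primary fibroblasts switched to supplemented DMEM 24 h before assay, then treated with compound (10 μM) plus H2DCFDA (22 μM) for 2 h (PA, MMA lines) or 24 h (other lines). Kinetic fluorescence at 492/527 nm over 60 min; only live cells analysed.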

In test [4] the test system is HepG2 cells. Briefly: Glucose uptake (Glucose Uptake-Glo). It counts as cell-based. The conditions noted are these: Homo sapiens, read-out: % increase in Glucose Uptake.
The mark [5] stands for this setting: Fibroblast, BCKD GM00649, Assay Condition C, read-out: Decreased ROS by at least 10%.
Setting [6] is: Fibroblast, BCKD GM00649, Assay Condition C, read-out: Decreased ROS by at least 30%.
Setting [7] is: FXN GM04078, Assay Condition C, read-out: Decreased ROS by at least 10%.
Setting [8] is: FXN GM04078, Assay Condition C, read-out: Decreased ROS by at least 30%.
Setting [9] is: Fibroblast, VLCAD GM17475, Assay Condition C, read-out: Decreased ROS by at least 10%.
[10] abbreviates: Fibroblast, VLCAD GM17475, Assay Condition C, read-out: Decreased ROS by at least 30%.
The mark [11] stands for this setting: Fibroblast, PDH GM01503, Assay Condition C, read-out: Decreased ROS by at least 10%.
The mark [12] stands for this setting: Fibroblast, BCKD GM00612, Assay Condition A, read-out: Decreased ROS by at least 10%.

In the case of `CC(O)CC(O)CC(=O)SCCNC(=O)CCNC(=O)[C@H](O)C(C)(C)CO` (some centres unmarked) [Compound 400], the activation at 10 µM with HepG2 cells [1] was > 20%; in test [2] it was ≥ 10%. The inhibition at 10 µM in test [3] (setting [5]) was ≥ 10%; in test [3] (setting [6]), ≥ 30%; in test [3] (setting [7]) it was ≥ 10%; in test [3] (setting [8]), ≥ 30%.

In the case of `CC(=O)SCCNC(=O)CCNC(=O)[C@H](O)C(C)(C)COC(=O)CCC(=O)O` [Compound 1242, (R)-12-hydroxy-13,13-dimethyl-2,7,11,16-tetraoxo-15-oxa-3-thia-6,10-diazanonadecan-19-oic acid], the activation at 10 µM in test [2] is ≥ 10%.

For the compound `CC[C@@H](O)CC(=O)SCCNC(=O)CCNC(=O)[C@H](O)C(C)(C)CO` [Compound 1245, (2R)-2,4-dihydroxy-N-{2-[(2-{[(3R)-3-hydroxypentanoyl]sulfanyl}ethyl)carbamoyl]ethyl}-3,3-dimethylbutanamide], the activation at 10 µM in test [2] is ≥ 10%. Besides, the inhibition at 10 µM is ≥ 10% in test [3] (setting [9]) and ≥ 30% in test [3] (setting [10]).

Regarding `CC(C)(CO)[C@@H](O)C(=O)NCCC(=O)NCCSC(CC(=O)OCC[N+](C)(C)C)C(=O)O` (stereo partly drawn) [Compound 51, [2-([3-carboxy-3-[(2-[3-[(2R)-2,4-dihydroxy-3,3-dimethylbutanamido]propanamido]ethyl)sulfanyl]propanoyl]oxy)ethyl]trimethylazanium], the activation at 10 µM is > 10% with HepG2 cells [1] and ≥ 30% in the test on HepG2 cells [4].

As to `CCC(=O)CC(=O)SCCNC(=O)CCNC(=O)[C@H](O)C(C)(C)CO` [Compound 382, (2R)-2,4-dihydroxy-3,3-dimethyl-N-[2-([2-[(3-oxopentanoyl)sulfanyl]ethyl]carbamoyl)ethyl]butanamide], the activation at 50 µM with HepG2 cells [4] is ≥ 30%. For the same compound, the activation at 10 µM in test [2] is ≥ 10%. Also, the inhibition at 10 µM in test [3] (setting [11]) was ≥ 10%; in test [3] (setting [10]) it was ≥ 30%; in test [3] (setting [7]) it was ≥ 10%; in test [3] (setting [8]) it was ≥ 30%.

Turning to `C[C@@H](O)CC(=O)CC(=O)SCCNC(=O)CCNC(=O)[C@H](O)C(C)(C)CO` [Compound 42, (2R)-2,4-dihydroxy-N-[2-[(2-[[(5R)-5-hydroxy-3-oxohexanoyl]sulfanyl]ethyl)carbamoyl]ethyl]-3,3-dimethylbutanamide], the activation at 10 µM in test [2] is ≥ 10%. Besides, the inhibition at 10 µM in test [3] (Fibroblast, NPC1 GM22879, Assay Condition C, read-out: Decreased ROS by at least 30%) was ≥ 30%; in test [3] (setting [11]) it was ≥ 10%.

For the compound `CC(C)(CO)[C@@H](OC(=O)CCC(=O)O)C(=O)NCCC(=O)NCCS` [Compound 1311, (R)-4-((4-hydroxy-1-((3-((2-mercaptoethyl)amino)-3-oxopropyl)amino)-3,3-dimethyl-1-oxobutan-2-yl)oxy)-4-oxobutanoic acid], the activation at 10 µM in the test with HepG2 cells [1] was > 10%. In addition, the inhibition at 10 µM was ≥ 10% in test [3] (setting [12]); ≥ 30% in test [3] (Fibroblast, VLCFA GM13262, Assay Condition C, read-out: Decreased ROS by at least 30%); ≥ 10% in test [3] (setting [7]); ≥ 30% in test [3] (setting [8]).

Take `COC(=O)CC(C(C)=O)C(=O)SCCNC(=O)CCNC(=O)[C@H](O)C(C)(C)CO` (some centres unmarked) [Compound 410]: the activation at 50 µM in the test on HepG2 cells [4] is ≥ 30%. Also, the activation at 10 µM in test [2] was ≥ 10%. The inhibition at 10 µM in test [3] (setting [6]) is ≥ 30%; in test [3] (Fibroblast, MMA Tsi 5224, Assay Condition A, read-out: Decreased ROS by at least 10%) it was ≥ 10%; in test [3] (setting [7]), ≥ 10%; in test [3] (setting [8]), ≥ 30%.

Take `CC(C)(CO)[C@@H](O)C(=O)NCCC(=O)NCCSC(=O)CC(O)C(=O)O` (some centres unmarked) [Compound 39]: in the test on HepG2 cells [1], the inhibition at 50 µM is > 50%. In addition, in test [3] (setting [9]), the inhibition at 10 µM is ≥ 10%.

With `CC(=O)OCC(C)(C)[C@@H](OC(C)=O)C(=O)NCCC(=O)NCCSC(C)=O` [Compound 1264, (1R)-3-(acetyloxy)-1-[(2-[[2-(acetylsulfanyl)ethyl]carbamoyl]ethyl)carbamoyl]-2,2-dimethylpropyl acetate], the activation at 50 µM in the test with HepG2 cells [4] was ≥ 20%. In test [2], the activation at 10 µM was ≥ 10%.

With `CC(=O)OCC(C)(C)[C@@H](O)C(=O)NCCC(=O)NCCSC(=O)CC(=O)CCC(=O)O` [Compound 140, 6-[(2-[3-[(2R)-4-(acetyloxy)-2-hydroxy-3,3-dimethylbutanamido]propanamido]ethyl)sulfanyl]-4,6-dioxohexanoic acid], the activation at 10 µM in test [2] was ≥ 10%. The inhibition at 10 µM in test [3] (Fibroblast, Leigh GM13411, Assay Condition C, read-out: Decreased ROS by at least 30%) is ≥ 30%; in test [3] (setting [11]) it was ≥ 10%.

In the case of `COC(=O)/C=C/C(=O)SCCNC(=O)CCNC(=O)[C@H](O)C(C)(C)COP(=O)(O)O` [Compound 73, methyl (R,E)-4-((2-(3-(2-hydroxy-3,3-dimethyl-4-(phosphonooxy)butanamido)propanamido)ethyl)thio)-4-oxobut-2-enoate], the inhibition at 50 µM in the test on HepG2 cells [1] was > 30%. Further, the inhibition at 10 µM in test [3] (Fibroblast, NPC1 GM22879, Assay Condition C, read-out: Decreased ROS by at least 10%) was ≥ 10%.

Regarding `COC(=O)C(C)C(=O)SCCNC(=O)CCNC(=O)[C@H](O)C(C)(C)CO` (some centres unmarked) [Compound 405], in the test on HepG2 cells [1], the inhibition at 50 µM was > 50%. The inhibition at 10 µM in test [3] (setting [5]) is ≥ 10%; in test [3] (setting [6]), ≥ 30%.

For the compound `CC(C)(CO)[C@@H](O)C(=O)NCCC(=O)NCCSC(=O)CC(=O)CCC(=O)O` [Compound 2, 6-[(2-[3-[(2R)-2,4-dihydroxy-3,3-dimethylbutanamido]propanamido]ethyl)sulfanyl]-4,6-dioxohexanoic acid], the activation at 10 µM (in the test on HepG2 cells [4]; in test [2]) was ≥ 10% in each case. Further, the inhibition at 10 µM in test [3] (setting [12]) was ≥ 10%; in test [3] (setting [6]) it was ≥ 30%; in test [3] (setting [7]), ≥ 10%; in test [3] (setting [8]) it was ≥ 30%.
